According to patent US12486253B2, “Therapeutics for the degradation of mutant BRAF” (C4 THERAPEUTICS, INC., priority 2021, dated 2025):
Entries after “also recorded” stand apart in the source; their conditions may differ. Structures can show the parent of a compound that is named as a salt.

Legend:
BRAF V600E = BRAF V600E (Homo sapiens, UniProt P15056, V600E); test: HiBiT cellular BRAF^V600E degradation assay; format: cell-based; settings: A375.10 cells, 24 h; for DC50: concentration at which 50% of total cellular BRAF^V600E is degraded; for Emax: residual protein remaining in the cell, read-out: HiBit 24 h Emax
BRAF V600E, sequence (P15056 whole entry V600E): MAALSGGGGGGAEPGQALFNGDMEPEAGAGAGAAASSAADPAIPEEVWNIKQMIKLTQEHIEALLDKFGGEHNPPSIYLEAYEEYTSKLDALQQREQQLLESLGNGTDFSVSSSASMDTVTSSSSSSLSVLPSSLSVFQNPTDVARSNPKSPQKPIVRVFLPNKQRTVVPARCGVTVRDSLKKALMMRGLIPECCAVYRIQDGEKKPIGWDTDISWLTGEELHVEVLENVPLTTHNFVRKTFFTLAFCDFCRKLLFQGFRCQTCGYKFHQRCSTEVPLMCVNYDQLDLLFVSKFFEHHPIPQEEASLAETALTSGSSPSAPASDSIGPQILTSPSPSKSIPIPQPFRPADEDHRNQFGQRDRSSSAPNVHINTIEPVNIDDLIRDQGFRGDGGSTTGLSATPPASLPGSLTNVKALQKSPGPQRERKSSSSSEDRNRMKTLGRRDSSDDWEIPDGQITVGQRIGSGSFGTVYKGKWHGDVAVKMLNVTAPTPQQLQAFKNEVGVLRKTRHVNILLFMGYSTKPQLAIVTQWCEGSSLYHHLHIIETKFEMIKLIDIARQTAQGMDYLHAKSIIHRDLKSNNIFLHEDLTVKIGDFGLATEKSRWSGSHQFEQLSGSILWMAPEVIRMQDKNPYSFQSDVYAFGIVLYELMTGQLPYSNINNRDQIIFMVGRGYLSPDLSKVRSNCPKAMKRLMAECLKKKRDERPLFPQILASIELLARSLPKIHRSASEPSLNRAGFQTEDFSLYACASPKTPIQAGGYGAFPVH

ERK phosphorylation = test: Western blot of ERK phosphorylation in A375 cells expressing NRAS^Q61K; format: cell-based; settings: 24 hours
[1] = system: A375 cells expressing the oncogenic NRAS^Q61K mutation; test: Cellular growth over time of A375 cells expressing NRAS^Q61K; format: cell-based
[2] = system: A375 NRAS^Q61K mutant melanoma cell line xenograft; test: In vivo efficacy in A375 NRAS^Q61K mutant melanoma xenograft; set-up: species or system BALBc/Nude mice; settings: oral gavage, with MEKi trametinib 0.1 mg/kg BID
[3] = system: H1666 cells endogenously expressing the class III BRAF mutation G466V; test: Cellular growth over time in H1666 cells; format: cell-based; settings: G466V
phospho-ERK (T202/Y204) [4] = test: HTRF phospho-ERK (T202/Y204) inhibition assay in A375 cells; format: cell-based; settings: Homo sapiens, A-375, 24 hrs, mean of at least n = 3, read-out: pERK IC50
Protocol: (§1) A375 (harboring BRAF homozygous V600E mutation) were purchased from ATCC. DMEM Medium without phenol red and supplemented with L-glutamine was purchased from Corning (Corning, NY, USA). Advanced phospho-ERK (Thr202/Tyr204) HTRF assay kits were purchased from Cisbio (Bedford, MA, USA). Cell culture flasks and 384-well microplates were acquired from VWR (Radnor, PA, USA) or Corning (Corning, NY, USA).
(§2) Degradation of activated phospho-ERK (T202/Y204) protein was determined based on quantification of FRET signal using the Advanced phospho-ERK (T202/Y204) HTRF assay kit. Test compounds were added to the 384-well plate from a top concentration of 10 μM with 11 points, half log titration in duplicates. A375 cells were added into 384-well plates at a cell density of 8000 cells per well, respectively. The plates were kept at 37° C. with 5% CO2 for 24 hours. Cells treated in the absence of the test compound were the negative control. Positive control was set by wells containing all reagents but no cells. FRET signal was acquired on EnVision™ Multilabel Reader (PerkinElmer, Santa Clara, CA, USA).

A375 cells = test: CellTiter-Glo cell growth inhibition, A375 cells; format: cell-based; settings: Homo sapiens, A-375, 72 hr, mean of at least n = 3
Protocol: (§3) A375 cell viability was determined based on quantification of ATP using CellTiter-Glo® 2.0 luminescent Assay kit, which signals the presence of metabolically-active cells. Briefly, test compound was added to 384-well plates at a top concentration of 10 μM with 14 points, half log titration in duplicates. A375 cells were seeded into the 384-well plates in DMEM medium containing 10% FBS at a cell density of 250 cells per well. Cells treated in the absence of the test compound were the negative control, normalized to 100% viability, and cells treated in the absence of CellTiter-Glo® 2.0 were the positive control, normalized to 0% viability. A375 cells were incubated at 37° C. with 5% CO2 for 72 hr. CellTiter-Glo reagent was then added to the cells and Luminescence was acquired on EnVision™ Multilabel Reader (PerkinElmer, Santa Clara, CA, USA).

phospho-ERK (T202/Y204) [5] = test: HTRF phospho-ERK (T202/Y204) assay in A375-NRAS^Q61K cells; format: cell-based; settings: 24 hrs, mean of at least n = 3, read-out: pERK IC50
Description: as §1, with “A375-NRAS^Q61K cells” for “A375”, “V600E mutation and NRAS homozygous Q61K” for “V600E”
as §2, with “A375-NRAS^Q61K” for “A375”, “2000” for “8000”, “well.” for “well, respectively.”

A375-NRAS^Q61K cells = test: CellTiter-Glo growth inhibition assay, A375-NRAS^Q61K cells; format: cell-based; settings: 96 hr, mean of at least n = 3
Protocol: A375-NRAS^Q61K cells (harboring BRAF homozygous V600E mutation and NRAS homozygous Q61K mutation) were purchased from ATCC. DMEM Medium (without phenol red and supplemented with L-glutamine) was purchased from Corning (Corning, NY, USA). CellTiter-Glo® 2.0 Assay was purchased from Promega (Madison, WI, USA). Cell culture flasks and 384-well microplates were acquired from VWR (Radnor, PA, USA) or Corning (Corning, NY, USA).
as §3, with “A375-NRAS^Q61K cell viability” for “A375 cell viability”, “in duplicates. A375-NRAS^Q61K cells were” for “in duplicates. A375 cells were”, “CO2 for 96 hr. CellTiter-Glo” for “CO2 for 72 hr. CellTiter-Glo”

SMILES	DC50 (BRAF V600E) [nM]	Emax (BRAF V600E) [%]	other results
CCN(C)S(=O)(=O)Nc1ccc(F)c(Oc2ccc3ncc(C4CCC5(CCN(C(=O)CN6CCC(c7ccc(NC8CCC(=O)NC8=O)cc7F)CC6)CC5)C4)nc3c2)c1C#N (stereo not shown) [Example 220, 7-[2-cyano-3-[[ethyl(methyl)sulfamoyl]amino]-6-fluorophenoxy]-2-[8-[2-[4-[4-[(2,6-dioxopiperidin-3-yl)amino]-2-fluorophenyl]piperidin-1-yl]acetyl]-8-azaspiro[4.5]decan-3-yl]quinoxaline]	47	10.5	
CCN(C)S(=O)(=O)Nc1ccc(F)c(Oc2ccc3ncc(C4COC5(CCN(C(=O)CN6CCC(c7ccc(NC8CCC(=O)NC8=O)cc7F)CC6)CC5)C4)nc3c2)c1C#N (stereo not shown) [Example 221, 3-[7-[2-cyano-3-[[ethyl(methyl)sulfamoyl]amino]-6-fluorophenoxy]quinoxalin-2-yl]-8-[2-[4-[4-[(2,6-dioxopiperidin-3-yl)amino]-2-fluorophenyl]piperidin-1-yl]acetyl]-1-oxa-8-azaspiro[4.5]decane]	30.5	10.3	
CCN(C)S(=O)(=O)Nc1ccc(F)c(Oc2ccc3ncc([C@@H]4COC5(CCN(C(=O)CN6CCC(c7ccc(NC8CCC(=O)NC8=O)cc7F)CC6)CC5)C4)nc3c2)c1C#N (stereo partly drawn) [Example 223, (3R)-3-[7-[2-cyano-3-[[ethyl(methyl)sulfamoyl]amino]-6-fluorophenoxy]quinoxalin-2-yl]-8-[2-[4-[4-[(2,6-dioxopiperidin-3-yl)amino]-2-fluorophenyl]piperidin-1-yl]acetyl]-1-oxa-8-azaspiro[4.5]decane]	29.6	10.5	
CCN(C)S(=O)(=O)Nc1ccc(F)c(Oc2ccc3ncc([C@H]4COC5(CCN(C(=O)CN6CCC(c7ccc(NC8CCC(=O)NC8=O)cc7F)CC6)CC5)C4)nc3c2)c1C#N (stereo partly drawn) [Example 224, (3S)-3-[7-[2-cyano-3-[[ethyl(methyl)sulfamoyl]amino]-6-fluorophenoxy]quinoxalin-2-yl]-8-[2-[4-[4-[(2,6-dioxopiperidin-3-yl)amino]-2-fluorophenyl]piperidin-1-yl]acetyl]-1-oxa-8-azaspiro[4.5]decane]	22.9	9.09	
CCN(C)S(=O)(=O)Nc1ccc(F)c(Oc2ccc3ncn(CCC4CCN(C(=O)CN5CCC(c6ccc(NC7CCC(=O)NC7=O)cc6)CC5)CC4)c(=O)c3c2)c1C#N (stereo not shown) [Example A1, 6-[2-cyano-3-[[ethyl(methyl)sulfamoyl]amino]-6-fluoro-phenoxy]-3-[2-[1-[2-[4-[4-[(2,6-dioxo-3-piperidyl)amino]phenyl]-1-piperidyl]acetyl]-4-piperidyl]ethyl]-4-oxo-quinazoline]	78	23	
N#Cc1c(NS(=O)(=O)C2CCCC2)ccc(F)c1Oc1ccc2ncn(CCC3CCN(C(=O)CN4CCC(c5ccc(NC6CCC(=O)NC6=O)cc5)CC4)CC3)c(=O)c2c1 (stereo not shown) [Example A3, N-[2-cyano-3-[3-[2-[1-[2-[4-[4-[(2,6-dioxo-3-piperidyl)amino]phenyl]-1-piperidyl]acetyl]-4-piperidyl]ethyl]-4-oxo-quinazolin-6-yl]oxy-4-fluoro-phenyl]cyclopentanesulfonamide 2,2,2-trifluoroacetic acid salt]	242	24	
COC(=O)N[C@@H](C)CNc1nccc(-c2cn(C(C)C)nc2-c2cc(Cl)cc(NS(C)(=O)=O)c2F)n1 [encorafenib, reference compound]			ERK phosphorylation, in combination with trametinib (ERK phosphorylation; with 1 nM trametinib): unable to significantly suppress; ERK phosphorylation, alone (ERK phosphorylation; without trametinib): unable to significantly suppress; cell growth inhibition [1]: does not inhibit cell growth; tumor response, in combination with trametinib [2]: no activity; cell growth inhibition [3]: no activity; also recorded: does not inhibit cell growth; IC50 (phospho-ERK (T202/Y204) [4]): 2.1 nM; GI50 (A375 cells): 8 nM; IC50 (phospho-ERK (T202/Y204) [5]): 31 nM; GI50 (A375-NRAS^Q61K cells): 911 nM

Second part, led by results:

DC50 (BRAF V600E) [nM]	Emax (BRAF V600E) [%]	SMILES	other results
18.6	7.82	CCN(C)S(=O)(=O)Nc1ccc(F)c(Oc2ccc3ncn([C@@H]4COC5(CCN(C(=O)CC6(O)CCN(c7cc8c(cc7F)c(N7CCC(=O)NC7=O)nn8C)CC6)CC5)C4)c(=O)c3c2)c1C#N [Example 228, (3S)-3-[6-[2-cyano-3-[[ethyl(methyl)sulfamoyl]amino]-6-fluoro-phenoxy]-4-oxo-quinazolin-3-yl]-8-[2-[1-[3-(2,4-dioxohexahydropyrimidin-1-yl)-5-fluoro-1-methyl-indazol-6-yl]-4-hydroxy-4-piperidyl]acetyl]-1-oxa-8-azaspiro[4.5]decane]	
165	26	CCN(C)S(=O)(=O)Nc1ccc(F)c(Oc2ccc3ncn(CCC4CCN(CC(=O)N5CCC(c6ccc(NC7CCC(=O)NC7=O)cc6)CC5)CC4)c(=O)c3c2)c1C#N (stereo not shown) [Example A2, 6-[2-cyano-3-[[ethyl(methyl)sulfamoyl]amino]-6-fluoro-phenoxy]-3-[2-[1-[2-[4-[4-[(2,6-dioxo-3-piperidyl)amino]phenyl]-1-piperidyl]-2-oxo-ethyl]-4-piperidyl]ethyl]-4-oxo-quinazoline, 2,2,2-trifluoroacetic acid salt]	
